Organism: Rattus norvegicus
Test: Open TG-GATES - Regimen: Daily Repeat
Format: toxicity, organism-based, Sprague-Dawley
Set-up: regimen Daily Repeat, gender Male, age 6 weeks
Details: in vivo, po, route gavage; for APTT / Bas / Eos / Fbg / Hb / Ht / Lym / MCH / MCHC / MCV / Mono / Neu / Plat / RBC / Ret / WBC / PT: tissue Blood; for KIDNEY_L / KIDNEY_R / KIDNEY_TOTAL: tissue Kidney; for ALP / ALT / AST / BUN / CRE / Ca / Cl / DBIL / GLC / IP / K / LDH / Na / PL / RALB / TBIL / TC / TG / TP / gamma-GTP: tissue Plasma
[1] = 0 mg/kg, 72 h, dose level Control, time 3 day
[2] = 0 mg/kg, […], dose level Control, time 7 day
[3] = 0 mg/kg, […], dose level Control, time 14 day
[4] = 0 mg/kg, […], dose level Control, time 28 day
[5] = 45 mg/kg, 72 h, dose level Low, time 3 day
[6] = 45 mg/kg, […], dose level Low, time 7 day
[7] = 45 mg/kg, […], dose level Low, time 14 day
[8] = 45 mg/kg, […], dose level Low, time 28 day

## CC(=O)Oc1ccccc1C(=O)O [ASPIRIN]
[1]
  TERMINAL_BW: 238.8 g
  APTT: 19.3 s
  Bas: 0%
  Eos: 1%
  Fbg: 216.6 mg/dL
  Hb: 13.1 g/dL
  Ht: 38.5%
  Lym: 82%
  MCH: 21.2 pg
  MCHC: 34.2%
  MCV: 62.1 fL
  Mono: 2.4%
  Neu: 13.4%
  Plat: 121.3 x10_4/uL
  RBC: 620 x10_4/ul
  Ret: 5.9%
  WBC: 98.5 x10_2/uL
  KIDNEY_L: 1.1 g
  KIDNEY_R: 1.1 g
  KIDNEY_TOTAL: 2.1 g
  ALP: 970.4 IU/L
  ALT: 35.6 IU/L
  AST: 73.2 IU/L
  BUN: 14.8 mg/dL
  CRE: 0.4 mg/dL
  Ca: 10.8 mg/dL
  Cl: 102.2 meq/L
  DBIL: 0.082 mg/dL
  GLC: 203.2 mg/dL
  IP: 7.1 mg/dL
  K: 3.9 meq/L
  LDH: 223 IU/L
  Na: 140.4 meq/L
  PL: 148.8 mg/dL
  RALB: 3.4 g/dL
  TBIL: 0.1 mg/dL
  TC: 74.6 mg/dL
  TG: 99.2 mg/dL
  TP: 5.7 g/dL
  gamma-GTP: 1 IU/L
[2]
  TERMINAL_BW: 272.8 g
  APTT: 21.2 s
  Bas: 0%
  Eos: 1%
  Fbg: 211.2 mg/dL
  Hb: 13.7 g/dL
  Ht: 40.3%
  Lym: 85.6%
  MCH: 21.1 pg
  MCHC: 34%
  MCV: 62.1 fL
  Mono: 2%
  Neu: 11%
  Plat: 128.4 x10_4/uL
  RBC: 648.4 x10_4/ul
  Ret: 5.3%
  WBC: 135.5 x10_2/uL
  KIDNEY_L: 1.2 g
  KIDNEY_R: 1.2 g
  KIDNEY_TOTAL: 2.3 g
  ALP: 844.4 IU/L
  ALT: 29.2 IU/L
  AST: 59.2 IU/L
  BUN: 15.8 mg/dL
  CRE: 0.4 mg/dL
  Ca: 10.7 mg/dL
  Cl: 102.4 meq/L
  DBIL: 0.096 mg/dL
  GLC: 210.8 mg/dL
  IP: 7.6 mg/dL
  K: 3.6 meq/L
  LDH: 178.2 IU/L
  Na: 141 meq/L
  PL: 137.4 mg/dL
  RALB: 3.4 g/dL
  TBIL: 0.1 mg/dL
  TC: 66.4 mg/dL
  TG: 100.2 mg/dL
  TP: 5.5 g/dL
  gamma-GTP: 0.6 IU/L
[3]
  TERMINAL_BW: 324.4 g
  APTT: 20.2 s
  Bas: 0%
  Eos: 0.8%
  Fbg: 216.8 mg/dL
  Hb: 14.2 g/dL
  Ht: 40.6%
  Lym: 82.6%
  MCH: 20.8 pg
  MCHC: 34.9%
  MCV: 59.6 fL
  Mono: 2%
  Neu: 13.4%
  RBC: 681.6 x10_4/ul
  Ret: 3.4%
  WBC: 134.5 x10_2/uL
  KIDNEY_L: 1.3 g
  KIDNEY_R: 1.3 g
  KIDNEY_TOTAL: 2.5 g
  ALP: 726.8 IU/L
  ALT: 33.4 IU/L
  AST: 62.2 IU/L
  BUN: 17.8 mg/dL
  CRE: 0.4 mg/dL
  Ca: 10.8 mg/dL
  Cl: 103 meq/L
  DBIL: 0.1 mg/dL
  GLC: 193.6 mg/dL
  IP: 7.2 mg/dL
  K: 3.9 meq/L
  LDH: 220.2 IU/L
  Na: 141 meq/L
  PL: 151.2 mg/dL
  RALB: 3.3 g/dL
  TBIL: 0.1 mg/dL
  TC: 67.8 mg/dL
  TG: 152.8 mg/dL
  TP: 5.8 g/dL
  gamma-GTP: 1 IU/L
[4]
  TERMINAL_BW: 389.9 g
  APTT: 21.5 s
  Bas: 0%
  Eos: 1%
  Fbg: 210.8 mg/dL
  Hb: 15.7 g/dL
  Ht: 45.3%
  Lym: 81.8%
  MCH: 19.3 pg
  MCHC: 34.7%
  MCV: 55.6 fL
  Mono: 2%
  Neu: 13.8%
  PT: 12.6 s
  Plat: 116.7 x10_4/uL
  RBC: 815.4 x10_4/ul
  Ret: 1.8%
  WBC: 109 x10_2/uL
  KIDNEY_L: 1.4 g
  KIDNEY_R: 1.4 g
  KIDNEY_TOTAL: 2.8 g
  ALP: 605.4 IU/L
  ALT: 33.2 IU/L
  AST: 60.8 IU/L
  BUN: 17 mg/dL
  CRE: 0.5 mg/dL
  Ca: 10.1 mg/dL
  Cl: 103.2 meq/L
  DBIL: 0.1 mg/dL
  GLC: 213 mg/dL
  IP: 6.3 mg/dL
  K: 3.7 meq/L
  LDH: 150 IU/L
  Na: 141 meq/L
  PL: 132.4 mg/dL
  RALB: 3.4 g/dL
  TBIL: 0.2 mg/dL
  TC: 65.4 mg/dL
  TG: 111.6 mg/dL
  TP: 6 g/dL
  gamma-GTP: 1.2 IU/L
[5]
  TERMINAL_BW: 237.2 g
  APTT: 19.4 s
  Bas: 0%
  Eos: 0.8%
  Fbg: 214 mg/dL
  Hb: 13.7 g/dL
  Ht: 40.3%
  Lym: 81%
  MCH: 21.4 pg
  MCHC: 33.9%
  MCV: 62.9 fL
  Mono: 2.8%
  Neu: 13.6%
  Plat: 113.2 x10_4/uL
  RBC: 641.2 x10_4/ul
  Ret: 5.8%
  WBC: 103.1 x10_2/uL
  KIDNEY_L: 1.1 g
  KIDNEY_R: 1.1 g
  KIDNEY_TOTAL: 2.2 g
  ALP: 890.4 IU/L
  ALT: 45 IU/L
  AST: 86.4 IU/L
  BUN: 13.8 mg/dL
  CRE: 0.4 mg/dL
  Ca: 10.7 mg/dL
  Cl: 102.2 meq/L
  DBIL: 0.09 mg/dL
  GLC: 205.2 mg/dL
  IP: 6.8 mg/dL
  K: 3.8 meq/L
  LDH: 315.2 IU/L
  Na: 140.4 meq/L
  PL: 146.2 mg/dL
  RALB: 3.5 g/dL
  TBIL: 0.1 mg/dL
  TC: 71 mg/dL
  TP: 5.7 g/dL
  gamma-GTP: 0.6 IU/L
[6]
  TERMINAL_BW: 270.5 g
  APTT: 22.5 s
  Bas: 0%
  Eos: 1%
  Fbg: 205.8 mg/dL
  Hb: 13.5 g/dL
  Ht: 39.9%
  Lym: 84.2%
  MCH: 20.8 pg
  MCHC: 33.9%
  MCV: 61.4 fL
  Mono: 2.2%
  Neu: 12.2%
  PT: 12.6 s
  Plat: 120.9 x10_4/uL
  RBC: 650.4 x10_4/ul
  Ret: 5.3%
  WBC: 120.2 x10_2/uL
  KIDNEY_L: 1.2 g
  KIDNEY_R: 1.2 g
  KIDNEY_TOTAL: 2.3 g
  ALP: 901.6 IU/L
  ALT: 27.8 IU/L
  AST: 62.2 IU/L
  BUN: 16 mg/dL
  CRE: 0.4 mg/dL
  Ca: 10.6 mg/dL
  Cl: 102.6 meq/L
  DBIL: 0.096 mg/dL
  GLC: 219 mg/dL
  IP: 7.3 mg/dL
  K: 4.1 meq/L
  LDH: 213.4 IU/L
  Na: 140.4 meq/L
  PL: 140.6 mg/dL
  RALB: 3.2 g/dL
  TBIL: 0.1 mg/dL
  TC: 73.4 mg/dL
  TG: 107.4 mg/dL
  TP: 5.5 g/dL
  gamma-GTP: 0.6 IU/L
[7]
  TERMINAL_BW: 315.9 g
  APTT: 19.9 s
  Bas: 0%
  Eos: 1.2%
  Fbg: 220.6 mg/dL
  Hb: 14.7 g/dL
  Ht: 42.3%
  Lym: 77.2%
  MCH: 20.9 pg
  MCHC: 34.9%
  MCV: 59.8 fL
  Mono: 2%
  Neu: 18.2%
  Plat: 128.5 x10_4/uL
  RBC: 707.4 x10_4/ul
  Ret: 3.6%
  WBC: 138.1 x10_2/uL
  KIDNEY_L: 1.3 g
  KIDNEY_R: 1.3 g
  KIDNEY_TOTAL: 2.5 g
  ALP: 902.4 IU/L
  ALT: 40.6 IU/L
  AST: 76 IU/L
  BUN: 16 mg/dL
  CRE: 0.4 mg/dL
  Ca: 10.6 mg/dL
  Cl: 102.8 meq/L
  DBIL: 0.1 mg/dL
  GLC: 189.8 mg/dL
  IP: 7.1 mg/dL
  K: 4.2 meq/L
  LDH: 244 IU/L
  Na: 140.8 meq/L
  PL: 153 mg/dL
  RALB: 3.5 g/dL
  TBIL: 0.1 mg/dL
  TC: 71.8 mg/dL
  TG: 133.6 mg/dL
  TP: 5.8 g/dL
  gamma-GTP: 0.6 IU/L
[8]
  TERMINAL_BW: 394.7 g
  APTT: 20.3 s
  Bas: 0%
  Eos: 1.4%
  Fbg: 207.2 mg/dL
  Hb: 15.4 g/dL
  Ht: 44.6%
  Lym: 80.4%
  MCH: 19.2 pg
  MCHC: 34.4%
  MCV: 55.7 fL
  Mono: 2.4%
  Neu: 14.2%
  Plat: 101 x10_4/uL
  RBC: 801 x10_4/ul
  Ret: 2%
  WBC: 104.5 x10_2/uL
  KIDNEY_L: 1.5 g
  KIDNEY_R: 1.5 g
  KIDNEY_TOTAL: 3 g
  ALP: 733.8 IU/L
  ALT: 33 IU/L
  AST: 67.2 IU/L
  BUN: 17 mg/dL
  CRE: 0.5 mg/dL
  Ca: 10.3 mg/dL
  Cl: 102.6 meq/L
  DBIL: 0.094 mg/dL
  GLC: 232.8 mg/dL
  IP: 6.7 mg/dL
  K: 3.9 meq/L
  LDH: 186.2 IU/L
  Na: 141.2 meq/L
  PL: 143.2 mg/dL
  RALB: 3.4 g/dL
  TBIL: 0.2 mg/dL
  TC: 68.6 mg/dL
  TG: 125 mg/dL
  TP: 6.1 g/dL
  gamma-GTP: 0.6 IU/L
150 mg/kg, 72 h, dose level Middle, time 3 day
  TERMINAL_BW: 239.9 g
